# Like-named read-outs stand apart in the source and are kept apart here.
# Legend:
# EZH2 (rPRC2) = EZH2 (rPRC2) (Homo sapiens, UniProt Q15910); test: EZH2 assay: rPRC2, biotinylated oligonucleosomes, 3H SAM methyl transfer (FlashPlate scintillation); type: biochemical; conditions: biotinylated oligonucleosome substrate
# Y641N EZH2 = Y641N EZH2 (Homo sapiens, UniProt Q15910, Y641N); test: Y641N EZH2 assay: as EZH2 assay, with reconstituted H3K27Me2 oligonucleosomes as substrate; type: biochemical
# Y641N EZH2, sequence (Q15910 whole entry Y641N): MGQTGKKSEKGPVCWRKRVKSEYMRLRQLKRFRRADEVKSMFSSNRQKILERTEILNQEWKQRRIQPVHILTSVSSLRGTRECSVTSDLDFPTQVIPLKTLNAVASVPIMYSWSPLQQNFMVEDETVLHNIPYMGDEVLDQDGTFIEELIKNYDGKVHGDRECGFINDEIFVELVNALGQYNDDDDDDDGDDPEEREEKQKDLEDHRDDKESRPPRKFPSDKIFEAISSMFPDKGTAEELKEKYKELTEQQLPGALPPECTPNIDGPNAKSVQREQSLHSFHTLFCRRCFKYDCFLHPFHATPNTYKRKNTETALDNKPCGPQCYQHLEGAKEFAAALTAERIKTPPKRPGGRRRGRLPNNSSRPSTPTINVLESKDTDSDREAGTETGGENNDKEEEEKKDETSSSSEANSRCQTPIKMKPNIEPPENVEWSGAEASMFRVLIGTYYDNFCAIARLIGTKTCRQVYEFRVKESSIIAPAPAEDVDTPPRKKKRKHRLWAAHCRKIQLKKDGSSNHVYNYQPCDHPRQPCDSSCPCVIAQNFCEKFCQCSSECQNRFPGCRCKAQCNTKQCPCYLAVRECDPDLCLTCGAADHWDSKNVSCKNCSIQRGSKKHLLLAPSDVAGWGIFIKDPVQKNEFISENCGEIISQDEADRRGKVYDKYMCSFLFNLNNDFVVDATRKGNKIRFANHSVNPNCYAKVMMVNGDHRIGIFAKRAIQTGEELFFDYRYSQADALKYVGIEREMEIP
# Y641N EZH2, sequence (O75530 whole entry partner): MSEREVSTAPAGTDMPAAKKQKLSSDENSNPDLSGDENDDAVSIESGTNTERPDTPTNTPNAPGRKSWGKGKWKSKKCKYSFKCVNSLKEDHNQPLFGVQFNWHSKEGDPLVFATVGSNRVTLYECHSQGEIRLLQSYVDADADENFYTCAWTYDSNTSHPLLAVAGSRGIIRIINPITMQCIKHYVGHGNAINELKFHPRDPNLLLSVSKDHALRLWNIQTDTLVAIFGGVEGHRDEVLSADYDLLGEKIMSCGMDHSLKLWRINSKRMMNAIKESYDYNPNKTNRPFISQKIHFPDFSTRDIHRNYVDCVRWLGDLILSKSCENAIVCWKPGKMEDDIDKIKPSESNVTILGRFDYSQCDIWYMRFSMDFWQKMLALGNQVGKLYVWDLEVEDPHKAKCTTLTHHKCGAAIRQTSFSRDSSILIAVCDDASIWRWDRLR
# Y641N EZH2, sequence (Q15022 whole entry partner): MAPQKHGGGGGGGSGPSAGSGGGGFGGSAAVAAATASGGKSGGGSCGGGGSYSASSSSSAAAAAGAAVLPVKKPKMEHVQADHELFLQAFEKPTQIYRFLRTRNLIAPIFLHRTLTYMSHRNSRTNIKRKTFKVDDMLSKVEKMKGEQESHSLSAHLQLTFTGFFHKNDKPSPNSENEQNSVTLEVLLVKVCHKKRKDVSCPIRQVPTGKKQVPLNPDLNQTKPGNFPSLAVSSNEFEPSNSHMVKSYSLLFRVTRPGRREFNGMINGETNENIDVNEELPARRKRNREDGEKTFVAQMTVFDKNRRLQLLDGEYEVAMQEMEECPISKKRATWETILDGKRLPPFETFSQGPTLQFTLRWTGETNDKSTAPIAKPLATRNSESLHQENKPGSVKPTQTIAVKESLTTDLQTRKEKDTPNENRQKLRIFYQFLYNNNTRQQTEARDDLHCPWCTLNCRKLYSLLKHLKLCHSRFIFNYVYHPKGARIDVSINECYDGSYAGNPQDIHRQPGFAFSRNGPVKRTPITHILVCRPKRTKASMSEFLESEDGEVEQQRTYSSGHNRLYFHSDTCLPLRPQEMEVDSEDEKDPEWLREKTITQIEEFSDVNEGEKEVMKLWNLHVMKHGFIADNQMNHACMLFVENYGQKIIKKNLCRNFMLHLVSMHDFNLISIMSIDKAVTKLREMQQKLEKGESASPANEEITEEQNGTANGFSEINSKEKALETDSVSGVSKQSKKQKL
# [1] = test system: H3K27me3 mark in HeLa cells; test: H3K27me3 MSD Hela Assay; type: cell-based; conditions: read-out: H3K27me3_MSD_HeLa_ (EC50)
# Method in brief: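 HeLa cells treated with compound at various concentrations for 96 h at 37 °C, then lysed with high-salt extraction. H3K27me3 measured by MSD electrochemiluminescence immunoassay on total-H3 capture plates. Dose-dependent inhibition normalised to DMSO wells and fitted to curves.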
# [2] = wild-type EZH2 (rPRC2), read-out: EZH2 IC50
# [3] = Y641N mutant EZH2, H3K27Me2 oligonucleosome substrate, read-out: Y641N EZH2 IC50
# [4] = Homo sapiens, HeLa cells, MSD, 96 hours
# [5] = EZH2 IC50, wild-type EZH2 (rPRC2)
# [6] = Y641N EZH2 IC50, Y641N mutant EZH2, H3K27Me2 oligonucleosome substrate
# EZH2 (rPRC2), sequence (Q15910 whole entry): as the sequence (Q15910 whole entry Y641N) above, with N641Y counted along it
# EZH2 (rPRC2), sequence (O75530 whole entry partner): as the sequence (O75530 whole entry partner) above
# EZH2 (rPRC2), sequence (Q15022 whole entry partner): as the sequence (Q15022 whole entry partner) above
Compound,IC50 (EZH2 (rPRC2); [2]) [nM],IC50 (Y641N EZH2; [3]) [nM],"EC50 [1, 4] [nM]",IC50 (EZH2 (rPRC2); [5]) [nM],IC50 (Y641N EZH2; [6]) [nM],"EC50 ([1]; Homo sapiens, HeLa, 96 h) [nM]","EC50 ([1]; HeLa cells, MSD, 96 hours) [nM]"
"Cc1cc(C)c(CNC(=O)c2c(C)n(C(C)CS(C)(=O)=O)c3ncccc23)c(=O)[nH]1 (racemic) [Compound 250, (±)-N-((4,6-dimethyl-2-oxo-1,2-dihydropyridin-3-yl)methyl)-2-methyl-1-(1-(methylsulfonyl)propan-2-yl)-1H-pyrrolo[2,3-b]pyridine-3-carboxamide]",< 100,100 to 1000,2000 to 10000,–,–,–,–
"Cc1cc(C)c(CNC(=O)c2c(C)n(C(C)c3ccccc3)c3ncccc23)c(=O)[nH]1 (single isomer, unassigned) [Compound 116, N-((4,6-dimethyl-2-oxo-1,2-dihydropyridin-3-yl)methyl)-2-methyl-1-(1-phenylethyl)-1H-pyrrolo[2,3-b]pyridine-3-carboxamide]",–,–,–,< 100,100 to 1000,400 to 2000,–
"COc1cc(C)[nH]c(=O)c1CNC(=O)c1c(C)n(C(C)c2cccc(C#N)c2)c2ncccc12 (racemic) [Compound 239, (±)-1-(1-(3-cyanophenyl)ethyl)-N-((4-methoxy-6-methyl-2-oxo-1,2-dihydropyridin-3-yl)methyl)-2-methyl-1H-pyrrolo[2,3-b]pyridine-3-carboxamide]",–,–,–,< 100,< 100,400 to 2000,–
"Cc1cc(C)c(CNC(=O)c2c(C)n(C(C)c3cccc(C#N)c3)c3ccccc23)c(=O)[nH]1 (single isomer, unassigned) [Compound 227, (R or S)-1-(1-(3-cyanophenyl)ethyl)-N-((4,6-dimethyl-2-oxo-1,2-dihydropyridin-3-yl)methyl)-2-methyl-1H-indole-3-carboxamide]",–,–,–,< 100,< 100,400 to 2000,–
"COC[C@@H](C)n1c(C)c(C(=O)NCc2c(OC)cc(C)[nH]c2=O)c2cncnc21 [Compound 303, (R)-N-((4-methoxy-6-methyl-2-oxo-1,2-dihydropyridin-3-yl)methyl)-7-(1-methoxypropan-2-yl)-6-methyl-7H-pyrrolo[2,3-d]pyrimidine-5-carboxamide]",–,–,–,< 100,100 to 1000,400 to 2000,–
"Cc1cc(C)c(CNC(=O)c2c(C)n(C(C)Cn3cnc4ccccc43)c3ncccc23)c(=O)[nH]1 (racemic) [Compound 238, (±)-1-(1-(1H-benzo[d]imidazol-1-yl)propan-2-yl)-N-((4,6-dimethyl-2-oxo-1,2-dihydropyridin-3-yl)methyl)-2-methyl-1H-pyrrolo[2,3-b]pyridine-3-carboxamide]",100 to 1000,1000 to 10000,2000 to 10000,–,–,–,–
COc1cc(C)[nH]c(=O)c1CNC(=O)c1c(C)n(C(C)C2(C)COC2)c2ccccc12 (racemic) [Compound 291],–,–,–,< 100,100 to 1000,400 to 2000,–
"COC(C)C(C)n1c(C)c(C(=O)NCc2c(C)cc(C)[nH]c2=O)c2cccnc21 (stereo not drawn) [Compound 241, N-((4,6-dimethyl-2-oxo-1,2-dihydropyridin-3-yl)methyl)-1-(3-methoxybutan-2-yl)-2-methyl-1H-pyrrolo[2,3-b]pyridine-3-carboxamide]",–,–,–,< 100,100 to 1000,400 to 2000,–
"CCOCC(C)n1c(C)c(C(=O)NCc2c(OC)cc(C)[nH]c2=O)c2cccnc21 (racemic) [Compound 212, (±)-1-(1-ethoxypropan-2-yl)-N-((4-methoxy-6-methyl-2-oxo-1,2-dihydropyridin-3-yl)methyl)-2-methyl-1H-pyrrolo[2,3-b]pyridine-3-carboxamide]",–,–,–,< 100,100 to 1000,400 to 2000,–
"COc1cc(C)[nH]c(=O)c1CNC(=O)c1c(C)n(C(C)C2CCOCC2)c2ncncc12 (single isomer, unassigned) [Compound 319, (R or S)-N-((4-methoxy-6-methyl-2-oxo-1,2-dihydropyridin-3-yl)methyl)-6-methyl-7-(1-(tetrahydro-2H-pyran-4-yl)ethyl)-7H-pyrrolo[2,3-d]pyrimidine-5-carboxamide]",–,–,–,< 100,< 100,< 400,–
"COCC(C)n1c(C)c(C(=O)NCc2c(C)cc(C)[nH]c2=O)c2scnc21 (racemic) [Compound 254, (±)-N-((4,6-dimethyl-2-oxo-1,2-dihydropyridin-3-yl)methyl)-4-(1-methoxypropan-2-yl)-5-methyl-4H-pyrrolo[2,3-d]thiazole-6-carboxamide]",100 to 1000,100 to 1000,2000 to 10000,–,–,–,–
"COc1cc(C(C)n2c(C)c(C(=O)NCc3c(C)cc(C)[nH]c3=O)c3cccnc32)ccn1 (racemic) [Compound 207, (±)-N-((4,6-dimethyl-2-oxo-1,2-dihydropyridin-3-yl)methyl)-1-(1-(2-methoxypyridin-4-yl)ethyl)-2-methyl-1H-pyrrolo[2,3-b]pyridine-3-carboxamide]",–,–,–,< 100,100 to 1000,2000 to 10000,–
"Cc1cc(C)c(CNC(=O)c2c(C)n(C(C)c3ccc(Cl)cc3)c3ccccc23)c(=O)[nH]1 (racemic) [Compound 170, (±)-1-(1-(4-chlorophenyl)ethyl)-N-((2-hydroxy-4,6-dimethylpyridin-3-yl)methyl)-2-methyl-1H-indole-3-carboxamide]",–,–,–,< 100,100 to 1000,2000 to 10000,–
"Cc1cc(C)c(CNC(=O)c2c(C)n(C(C)c3ccccc3)c3cnccc23)c(=O)[nH]1 (racemic) [Compound 203, (±)-N-((4,6-dimethyl-2-oxo-1,2-dihydropyridin-3-yl)methyl)-2-methyl-1-(1-phenylethyl)-1H-pyrrolo[2,3-c]pyridine-3-carboxamide]",–,–,–,< 100,100 to 1000,2000 to 10000,–
"N-((4-methoxy-6-methyl-2-oxo-1,2-dihydropyridin-3-yl)methyl)-2-methyl-1-(1-(1-(methylsulfonyl)piperidin-3-yl)ethyl)-1H-indole-3-carboxamide [Compound 320]",< 100,< 100,–,–,–,–,400 to 2000

# Source: patent US9371331B2, “Modulators of methyl modifying enzymes, compositions and uses thereof” (Constellation Pharmaceuticals, Inc., priority 2012, dated 2016)
